Assay results published in the supplement of paper PMC12463676, “Small-molecule dissolution of stress granules by redox modulation benefits ALS models” (Nature Chemical Biology, 2025).

Tests used:
lipoamide = compound: NC(=O)CCCCC1CCSS1 [lipoamide]; test: thermal stability z-score vs DMSO; higher = more thermally stabilized by treatment; settings: HeLa, lipoamide concentration 100 µM
Experimental: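 Cellular thermal proteome profiling in HeLa cells. Cells were treated with 100 µM lipoamide for 1 h, with or without 1 mM arsenate for a further 1 h, then heated to ten temperatures (37-66.3 °C), and soluble protein was quantified by TMT mass spectrometry relative to 0.1% DMSO controls. The thermal stability score (sum of log2 fold changes minus the abundance score) was transformed to a z-score; mean of n = 3 experiments.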

potassium arsenate = compound: O=[As]([O-])(O)O.[K+] [potassium arsenate]; test: as above; settings: HeLa; arsenate concentration 1 mM
Experimental: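 Cellular thermal proteome profiling in HeLa cells treated with 1 mM arsenate for 1 h (DMSO pretreatment), heated to ten temperatures (37-66.3 °C). Soluble protein was quantified by TMT mass spectrometry relative to DMSO controls; the thermal stability score was transformed to a z-score; mean of n = 3 experiments.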

[1] = arsenate co-treatment: 1 mM arsenate 1 h
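Also: each temperature applied for 3 min, abundance score taken as mean log2 fold change at the two lowest temperatures, z-score obtained by mean subtraction and division by SD.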

Sequence of UniProt O00399 (O00399 whole entry): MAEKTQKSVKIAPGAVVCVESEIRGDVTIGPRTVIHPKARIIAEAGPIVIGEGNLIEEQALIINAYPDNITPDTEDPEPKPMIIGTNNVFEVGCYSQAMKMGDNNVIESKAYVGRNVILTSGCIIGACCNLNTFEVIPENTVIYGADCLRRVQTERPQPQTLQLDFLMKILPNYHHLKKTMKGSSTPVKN
Sequence of UniProt Q96PD2 (Q96PD2 whole entry): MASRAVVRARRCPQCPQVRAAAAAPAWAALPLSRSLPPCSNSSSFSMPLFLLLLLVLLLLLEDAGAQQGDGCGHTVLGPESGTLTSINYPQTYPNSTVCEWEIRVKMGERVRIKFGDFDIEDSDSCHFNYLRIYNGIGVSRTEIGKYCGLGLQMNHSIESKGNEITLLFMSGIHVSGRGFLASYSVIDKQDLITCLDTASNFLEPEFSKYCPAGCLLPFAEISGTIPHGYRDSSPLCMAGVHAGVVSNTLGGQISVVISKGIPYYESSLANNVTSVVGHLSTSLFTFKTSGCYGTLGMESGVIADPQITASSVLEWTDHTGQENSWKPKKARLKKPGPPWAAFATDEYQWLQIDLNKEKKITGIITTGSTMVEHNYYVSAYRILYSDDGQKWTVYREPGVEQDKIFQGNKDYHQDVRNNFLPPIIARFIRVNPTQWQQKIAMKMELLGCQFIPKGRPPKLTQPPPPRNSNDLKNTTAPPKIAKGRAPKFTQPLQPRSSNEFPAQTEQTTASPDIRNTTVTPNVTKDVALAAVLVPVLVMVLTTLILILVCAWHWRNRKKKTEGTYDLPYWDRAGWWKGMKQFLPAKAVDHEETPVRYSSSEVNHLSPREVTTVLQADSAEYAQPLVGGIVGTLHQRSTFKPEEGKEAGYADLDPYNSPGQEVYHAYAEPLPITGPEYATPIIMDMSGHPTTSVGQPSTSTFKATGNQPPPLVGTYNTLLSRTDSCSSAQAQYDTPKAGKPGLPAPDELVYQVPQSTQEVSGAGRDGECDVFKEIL
Sequence of UniProt O95865 (O95865 whole entry): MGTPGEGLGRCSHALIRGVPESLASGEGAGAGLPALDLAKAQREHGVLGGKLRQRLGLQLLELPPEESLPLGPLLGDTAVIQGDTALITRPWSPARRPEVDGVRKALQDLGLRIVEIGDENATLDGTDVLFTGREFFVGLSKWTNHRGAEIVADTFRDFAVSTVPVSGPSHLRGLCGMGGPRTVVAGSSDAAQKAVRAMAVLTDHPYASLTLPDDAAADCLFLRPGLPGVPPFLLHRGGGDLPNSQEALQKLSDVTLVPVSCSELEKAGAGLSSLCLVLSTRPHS
Sequence of UniProt Q16531 (Q16531 whole entry): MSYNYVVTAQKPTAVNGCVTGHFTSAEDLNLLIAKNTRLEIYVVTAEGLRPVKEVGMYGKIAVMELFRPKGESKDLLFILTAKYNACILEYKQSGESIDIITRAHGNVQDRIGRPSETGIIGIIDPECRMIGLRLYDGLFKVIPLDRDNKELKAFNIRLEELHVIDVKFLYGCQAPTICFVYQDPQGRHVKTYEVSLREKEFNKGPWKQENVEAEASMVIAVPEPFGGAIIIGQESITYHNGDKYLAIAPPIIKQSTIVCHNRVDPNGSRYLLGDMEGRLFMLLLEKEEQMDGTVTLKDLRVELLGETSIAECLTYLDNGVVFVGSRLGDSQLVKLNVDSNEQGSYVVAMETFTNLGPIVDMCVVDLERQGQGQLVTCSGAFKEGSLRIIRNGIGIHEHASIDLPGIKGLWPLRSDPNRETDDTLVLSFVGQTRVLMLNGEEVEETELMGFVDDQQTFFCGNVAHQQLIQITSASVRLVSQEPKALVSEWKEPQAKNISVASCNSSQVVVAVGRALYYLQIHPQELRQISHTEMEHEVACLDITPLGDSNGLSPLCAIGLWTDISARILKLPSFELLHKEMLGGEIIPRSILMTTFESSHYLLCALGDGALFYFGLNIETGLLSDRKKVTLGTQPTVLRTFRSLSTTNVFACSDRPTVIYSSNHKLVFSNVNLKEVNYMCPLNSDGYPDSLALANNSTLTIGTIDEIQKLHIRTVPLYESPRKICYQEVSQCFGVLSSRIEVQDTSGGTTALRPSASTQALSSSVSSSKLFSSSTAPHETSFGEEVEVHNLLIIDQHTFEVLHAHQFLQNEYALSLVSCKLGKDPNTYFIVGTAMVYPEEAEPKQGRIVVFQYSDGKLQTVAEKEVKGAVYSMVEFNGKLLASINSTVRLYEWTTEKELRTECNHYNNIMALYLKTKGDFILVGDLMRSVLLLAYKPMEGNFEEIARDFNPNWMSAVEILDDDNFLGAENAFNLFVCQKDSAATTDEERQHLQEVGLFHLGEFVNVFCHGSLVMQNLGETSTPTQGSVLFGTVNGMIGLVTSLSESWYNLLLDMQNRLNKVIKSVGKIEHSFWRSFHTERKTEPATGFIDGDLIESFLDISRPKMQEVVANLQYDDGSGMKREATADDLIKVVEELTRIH
Sequence of UniProt P27707 (P27707 whole entry, looked up): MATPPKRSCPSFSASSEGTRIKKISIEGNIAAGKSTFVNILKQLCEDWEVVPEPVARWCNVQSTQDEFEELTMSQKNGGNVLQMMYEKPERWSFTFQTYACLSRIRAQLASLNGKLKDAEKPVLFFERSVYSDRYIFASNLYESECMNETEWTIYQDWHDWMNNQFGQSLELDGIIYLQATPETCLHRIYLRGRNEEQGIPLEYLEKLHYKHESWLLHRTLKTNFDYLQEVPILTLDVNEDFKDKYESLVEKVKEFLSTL
Sequence of UniProt Q7Z4W1 (Q7Z4W1 whole entry): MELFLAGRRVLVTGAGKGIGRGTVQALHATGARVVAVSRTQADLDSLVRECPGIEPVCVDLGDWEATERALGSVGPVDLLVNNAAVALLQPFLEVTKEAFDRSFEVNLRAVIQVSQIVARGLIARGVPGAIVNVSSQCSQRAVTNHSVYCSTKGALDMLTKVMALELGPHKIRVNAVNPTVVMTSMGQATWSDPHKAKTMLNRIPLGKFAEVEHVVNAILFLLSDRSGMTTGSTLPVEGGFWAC
Sequence of UniProt O94760 (O94760 whole entry): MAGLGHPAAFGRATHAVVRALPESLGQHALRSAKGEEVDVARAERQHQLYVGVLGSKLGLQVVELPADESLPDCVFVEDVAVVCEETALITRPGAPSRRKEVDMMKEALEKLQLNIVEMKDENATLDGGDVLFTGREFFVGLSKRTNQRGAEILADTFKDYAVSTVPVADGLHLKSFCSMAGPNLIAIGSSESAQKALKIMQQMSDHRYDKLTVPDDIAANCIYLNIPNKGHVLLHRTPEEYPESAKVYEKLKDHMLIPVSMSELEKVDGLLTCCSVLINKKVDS
Sequence of UniProt Q14203 (Q14203 whole entry): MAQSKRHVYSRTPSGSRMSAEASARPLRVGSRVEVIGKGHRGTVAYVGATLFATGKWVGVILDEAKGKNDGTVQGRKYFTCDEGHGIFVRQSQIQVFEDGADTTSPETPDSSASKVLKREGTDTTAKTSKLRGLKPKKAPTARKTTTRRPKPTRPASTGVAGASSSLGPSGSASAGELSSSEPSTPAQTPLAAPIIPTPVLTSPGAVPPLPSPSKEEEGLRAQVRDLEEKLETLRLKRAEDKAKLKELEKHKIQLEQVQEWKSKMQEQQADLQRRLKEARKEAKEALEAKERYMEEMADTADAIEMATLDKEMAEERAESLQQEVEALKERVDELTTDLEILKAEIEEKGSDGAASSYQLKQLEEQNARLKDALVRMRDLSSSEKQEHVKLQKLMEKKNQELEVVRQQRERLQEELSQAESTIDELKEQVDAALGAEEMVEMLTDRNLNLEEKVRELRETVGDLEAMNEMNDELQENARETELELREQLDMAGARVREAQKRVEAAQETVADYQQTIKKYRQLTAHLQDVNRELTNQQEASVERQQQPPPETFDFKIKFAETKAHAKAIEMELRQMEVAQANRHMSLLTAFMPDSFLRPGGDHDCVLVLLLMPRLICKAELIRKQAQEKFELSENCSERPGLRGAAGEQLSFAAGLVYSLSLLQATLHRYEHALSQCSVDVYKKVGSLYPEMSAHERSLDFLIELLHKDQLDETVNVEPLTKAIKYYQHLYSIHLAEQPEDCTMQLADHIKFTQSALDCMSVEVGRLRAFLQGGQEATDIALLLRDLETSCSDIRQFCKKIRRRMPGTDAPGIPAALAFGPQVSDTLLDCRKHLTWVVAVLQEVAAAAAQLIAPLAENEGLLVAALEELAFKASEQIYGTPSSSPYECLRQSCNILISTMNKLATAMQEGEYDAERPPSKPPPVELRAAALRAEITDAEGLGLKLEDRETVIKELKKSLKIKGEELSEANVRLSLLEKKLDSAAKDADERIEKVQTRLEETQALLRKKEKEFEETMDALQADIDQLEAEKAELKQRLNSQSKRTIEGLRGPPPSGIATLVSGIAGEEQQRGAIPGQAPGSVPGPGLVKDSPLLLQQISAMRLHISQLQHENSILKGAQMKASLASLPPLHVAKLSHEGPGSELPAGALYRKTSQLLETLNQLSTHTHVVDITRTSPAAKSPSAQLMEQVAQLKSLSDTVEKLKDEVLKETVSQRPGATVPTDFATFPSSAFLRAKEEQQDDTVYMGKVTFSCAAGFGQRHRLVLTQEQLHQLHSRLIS
Sequence of UniProt Q9NV06 (Q9NV06 whole entry): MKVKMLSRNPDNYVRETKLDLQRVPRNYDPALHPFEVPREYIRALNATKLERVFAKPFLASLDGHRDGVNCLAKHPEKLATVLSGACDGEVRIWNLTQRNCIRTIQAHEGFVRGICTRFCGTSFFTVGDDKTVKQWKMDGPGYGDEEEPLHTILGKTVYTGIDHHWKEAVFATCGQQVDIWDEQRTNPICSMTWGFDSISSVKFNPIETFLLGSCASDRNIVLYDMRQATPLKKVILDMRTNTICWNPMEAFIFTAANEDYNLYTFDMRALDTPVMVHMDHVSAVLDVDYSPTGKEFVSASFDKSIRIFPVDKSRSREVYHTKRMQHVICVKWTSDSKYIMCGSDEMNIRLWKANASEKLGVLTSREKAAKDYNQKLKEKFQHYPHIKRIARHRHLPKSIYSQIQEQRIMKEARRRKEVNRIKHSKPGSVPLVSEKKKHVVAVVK

Work on DCAF13 (UniProt Q9NV06) yielded a thermal stability z-score (lipoamide; [1]) of -0.43, a thermal stability z-score (lipoamide; arsenate co-treatment: none) of -0.325 and a thermal stability z-score (potassium arsenate) of 1.25.
Target DCAF15 (UniProt Q66K64) has a thermal stability z-score (lipoamide; [1]) of 0.165, a thermal stability z-score (lipoamide; arsenate co-treatment: none) of -0.178 and a thermal stability z-score (potassium arsenate) of -0.174.
In the case of DCAKD (UniProt Q8WVC6), the thermal stability z-score (lipoamide; [1]) is reported as -0.963, the thermal stability z-score (lipoamide; arsenate co-treatment: none) is reported as -1.05 and the thermal stability z-score (potassium arsenate) is reported as 0.214.
For DCBLD2 (UniProt Q96PD2), the thermal stability z-score (lipoamide; [1]) was 0.0564, the thermal stability z-score (lipoamide; arsenate co-treatment: none) was 0.109 and the thermal stability z-score (potassium arsenate) was -0.505.
DCK (UniProt P27707) was tested, and the thermal stability z-score (lipoamide; [1]) was 0.519, the thermal stability z-score (lipoamide; arsenate co-treatment: none) was 0.335 and the thermal stability z-score (potassium arsenate) was -5.
DCLK2 (UniProt Q8N568) gave a thermal stability z-score (lipoamide; [1]) of -0.19, a thermal stability z-score (lipoamide; arsenate co-treatment: none) of 0.0433 and a thermal stability z-score (potassium arsenate) of 0.0241.
Work on DCP1A (UniProt Q9NPI6) yielded a thermal stability z-score (lipoamide; [1]) of -0.2, a thermal stability z-score (lipoamide; arsenate co-treatment: none) of -0.107 and a thermal stability z-score (potassium arsenate) of -0.248.
For DCP2 (UniProt Q8IU60), the thermal stability z-score (lipoamide; [1]) was -0.0416, the thermal stability z-score (lipoamide; arsenate co-treatment: none) was 0.195 and the thermal stability z-score (potassium arsenate) was -0.203.
DCPS (UniProt Q96C86) gave a thermal stability z-score (lipoamide; [1]) of -0.92, a thermal stability z-score (lipoamide; arsenate co-treatment: none) of -0.621 and a thermal stability z-score (potassium arsenate) of -0.92.
DCTD (UniProt P32321) showed a thermal stability z-score (lipoamide; [1]) of 0.038, a thermal stability z-score (lipoamide; arsenate co-treatment: none) of -0.504 and a thermal stability z-score (potassium arsenate) of -0.736.
DCTN1 (UniProt Q14203) showed a thermal stability z-score (lipoamide; [1]) of -0.27, a thermal stability z-score (lipoamide; arsenate co-treatment: none) of -0.171 and a thermal stability z-score (potassium arsenate) of 0.369.
Target DCTN2 (UniProt Q13561) has a thermal stability z-score (lipoamide; [1]) of 0.321, a thermal stability z-score (lipoamide; arsenate co-treatment: none) of 0.719 and a thermal stability z-score (potassium arsenate) of 0.914.
Target DCTN3 (UniProt O75935) has a thermal stability z-score (lipoamide; [1]) of 0.0144, a thermal stability z-score (lipoamide; arsenate co-treatment: none) of 0.489 and a thermal stability z-score (potassium arsenate) of 0.72.
DCTN4 (UniProt Q9UJW0) gave a thermal stability z-score (lipoamide; [1]) of -0.368, a thermal stability z-score (lipoamide; arsenate co-treatment: none) of -0.0931 and a thermal stability z-score (potassium arsenate) of -0.11.
For DCTN5 (UniProt Q9BTE1), the thermal stability z-score (lipoamide; [1]) was -0.414, the thermal stability z-score (lipoamide; arsenate co-treatment: none) was -0.0773 and the thermal stability z-score (potassium arsenate) was -0.329.
DCTN6 (UniProt O00399) showed a thermal stability z-score (lipoamide; [1]) of -0.771, a thermal stability z-score (lipoamide; arsenate co-treatment: none) of -0.761 and a thermal stability z-score (potassium arsenate) of -0.333.
For DCTPP1 (UniProt Q9H773), the thermal stability z-score (lipoamide; [1]) was 1.22, the thermal stability z-score (lipoamide; arsenate co-treatment: none) was 0.682 and the thermal stability z-score (potassium arsenate) was 0.499.
In the case of DCUN1D1 (UniProt Q96GG9), the thermal stability z-score (lipoamide; [1]) is reported as -0.437, the thermal stability z-score (lipoamide; arsenate co-treatment: none) is reported as -0.535 and the thermal stability z-score (potassium arsenate) is reported as 0.0368.
With DCUN1D4 (UniProt Q92564) the thermal stability z-score (lipoamide; [1]) was 0.0389, the thermal stability z-score (lipoamide; arsenate co-treatment: none) was -0.0281 and the thermal stability z-score (potassium arsenate) was -0.0972.
Work on DCUN1D5 (UniProt Q9BTE7) yielded a thermal stability z-score (lipoamide; [1]) of -0.0389, a thermal stability z-score (lipoamide; arsenate co-treatment: none) of 0.215 and a thermal stability z-score (potassium arsenate) of -0.507.
DCXR (UniProt Q7Z4W1) showed a thermal stability z-score (lipoamide; [1]) of 0.346, a thermal stability z-score (lipoamide; arsenate co-treatment: none) of -0.203 and a thermal stability z-score (potassium arsenate) of 0.528.
For DDA1 (UniProt Q9BW61), the thermal stability z-score (lipoamide; [1]) was 0.456, the thermal stability z-score (lipoamide; arsenate co-treatment: none) was -0.211 and the thermal stability z-score (potassium arsenate) was 0.665.
With DDAH1 (UniProt O94760) the thermal stability z-score (lipoamide; [1]) was 0.568, the thermal stability z-score (lipoamide; arsenate co-treatment: none) was 0.134 and the thermal stability z-score (potassium arsenate) was 0.259.
Work on DDAH2 (UniProt O95865) yielded a thermal stability z-score (lipoamide; [1]) of 0.838, a thermal stability z-score (lipoamide; arsenate co-treatment: none) of 0.743 and a thermal stability z-score (potassium arsenate) of 0.22.
DDB1 (UniProt Q16531) showed a thermal stability z-score (lipoamide; [1]) of -0.479, a thermal stability z-score (lipoamide; arsenate co-treatment: none) of -0.519 and a thermal stability z-score (potassium arsenate) of -0.468.
In the case of DDB2 (UniProt Q92466), the thermal stability z-score (lipoamide; [1]) is reported as -0.684, the thermal stability z-score (lipoamide; arsenate co-treatment: none) is reported as -1.2 and the thermal stability z-score (potassium arsenate) is reported as 0.0883.
With DDHD1 (UniProt Q8NEL9) the thermal stability z-score (lipoamide; [1]) was -0.143, the thermal stability z-score (lipoamide; arsenate co-treatment: none) was -0.142 and the thermal stability z-score (potassium arsenate) was 0.0595.
For DDHD2 (UniProt O94830), the thermal stability z-score (lipoamide; [1]) was 0.3, the thermal stability z-score (lipoamide; arsenate co-treatment: none) was -0.141 and the thermal stability z-score (potassium arsenate) was -0.0424.
Target DDI2 (UniProt Q5TDH0) has a thermal stability z-score (lipoamide; [1]) of -0.174, a thermal stability z-score (lipoamide; arsenate co-treatment: none) of -0.209 and a thermal stability z-score (potassium arsenate) of -0.217.
Target DDOST (UniProt P39656) has a thermal stability z-score (lipoamide; [1]) of -3.14, a thermal stability z-score (lipoamide; arsenate co-treatment: none) of -2.49 and a thermal stability z-score (potassium arsenate) of 0.00935.
